Tests used:
[1] = target: hα6(A184D) + hβ4 + hβ3 nAChR (Homo sapiens, UniProt P30926+Q15825, A184D); assay: Oocyte two-electrode voltage clamp; assay type: cell-based
Description: (§1) We planned to introduce identical amounts of cRNA, presumably producing equal amounts of each subunit protein, into oocytes largely due to lack of information about the levels of mRNA for each subunits that compose α6*-nAChRs in neurons or other cells. Concentrations of cRNAs for each nAChR α and β subunits (WT, mutant or variant) were adjusted to 500 ng μL^−1. We provisionally assumed that hα6 or its variants in association with hβ2 or hβ4 subunits would form complexes having 2:3 and/or 3:2 ratios of the indicated subunits and that oocytes also injected with WT or mutant form of β3 subunits (i.e., β3^V9’S) would express nAChR with 2:2:1 ratios of α:β:(β3 or β3^V9’S) subunits. For expression of binary nAChRs (i.e., two subunit containing nAChRs; α + β but not β3) cRNA mixtures were prepared by mixing 1 μL of cRNA for each subunit and an additional μL of RNAse free water (i.e., total volume 3 μL). Similarly for expression of ternary nAChRs [i.e., three subunit containing nAChRs; (α + β) + (β3 or β3^V9’S)] cRNA mixtures were prepared by mixing 1 μL of cRNA for each subunit. Several preparations of each mixture were prepared and stored at −80°C until further use. Injection of 138 nL of cRNA, out of 3 μL cRNA mixtures, into each oocyte would deliver ~23 ng of cRNA for each subunit whether binary or ternary nAChRs are expressed.
(§2) Two to 5 days after injection, oocytes were placed in a small-volume chamber and continuously perfused with OR2. The chamber was grounded through an agarose bridge. The oocytes were voltage-clamped at −70 mV (unless otherwise noted) to measure agonist or antagonist induced currents using Axoclamp 900A and pClamp 10.2 software (Molecular Devices, Sunnyvale, CA). The current signal was low-pass filtered at 10 Hz with the built-in low-pass Bessel filter in the Axoclamp 900A and digitized at 20 Hz with Axon Digidata1440A and pClamp10. […] Drugs (agonists and antagonists) were prepared daily in OR2. Drug was applied using a Valvelink 8.2 perfusion system (Automate scientific, Berkeley, CA). […] Then for the purpose of comparison electrophysiological recordings were performed in a given day in a given batch of oocytes following the same order of injections. […] All hβ4*-nAChR recordings were done in similar conditions to facilitate comparisons between hα6hβ4- and hα6hβ4hβ3-nAChRs. All electrophysiological measurements were conducted or checked in at least two batches of oocytes.
(§3) Raw data was collected and processed in part using pClamp 10.2 (Molecular Devices, Sunnyvale, CA), Origin 7.5 (OriginLab Corporation, Northampton, MA) and a spreadsheet (Excel; Microsoft, Bellevue, WA). Peak current amplitudes (Imax) are reported as mean ± SEM (for results from at least three oocytes, i.e., n = 3).

hα6 + hβ4 + hβ3 nAChR = hα6 + hβ4 + hβ3 nAChR (Homo sapiens, UniProt P30926+Q15825); assay: Oocyte two-electrode voltage clamp; assay type: cell-based
Description: as §1, §2, §3

hα6(S233C) + hβ4 nAChR = hα6(S233C) + hβ4 nAChR (Homo sapiens, UniProt P30926+Q15825, S233C); assay: Oocyte two-electrode voltage clamp; assay type: cell-based
Sequence of hα6(S233C) + hβ4 nAChR (Q15825 26-494 S233C): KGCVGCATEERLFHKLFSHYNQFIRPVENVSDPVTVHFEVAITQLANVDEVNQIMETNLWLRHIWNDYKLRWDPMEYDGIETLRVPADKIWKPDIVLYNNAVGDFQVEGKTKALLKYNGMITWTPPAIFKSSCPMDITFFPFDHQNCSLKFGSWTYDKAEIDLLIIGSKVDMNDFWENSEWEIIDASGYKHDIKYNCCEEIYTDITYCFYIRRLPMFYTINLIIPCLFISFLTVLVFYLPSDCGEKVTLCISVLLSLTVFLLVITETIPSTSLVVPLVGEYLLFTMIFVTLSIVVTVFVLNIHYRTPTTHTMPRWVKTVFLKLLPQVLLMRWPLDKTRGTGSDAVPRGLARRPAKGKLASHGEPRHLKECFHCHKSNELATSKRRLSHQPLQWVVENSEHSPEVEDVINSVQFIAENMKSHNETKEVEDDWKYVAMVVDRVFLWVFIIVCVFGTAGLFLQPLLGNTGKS
Sequence of hα6(S233C) + hβ4 nAChR (P30926 22-498): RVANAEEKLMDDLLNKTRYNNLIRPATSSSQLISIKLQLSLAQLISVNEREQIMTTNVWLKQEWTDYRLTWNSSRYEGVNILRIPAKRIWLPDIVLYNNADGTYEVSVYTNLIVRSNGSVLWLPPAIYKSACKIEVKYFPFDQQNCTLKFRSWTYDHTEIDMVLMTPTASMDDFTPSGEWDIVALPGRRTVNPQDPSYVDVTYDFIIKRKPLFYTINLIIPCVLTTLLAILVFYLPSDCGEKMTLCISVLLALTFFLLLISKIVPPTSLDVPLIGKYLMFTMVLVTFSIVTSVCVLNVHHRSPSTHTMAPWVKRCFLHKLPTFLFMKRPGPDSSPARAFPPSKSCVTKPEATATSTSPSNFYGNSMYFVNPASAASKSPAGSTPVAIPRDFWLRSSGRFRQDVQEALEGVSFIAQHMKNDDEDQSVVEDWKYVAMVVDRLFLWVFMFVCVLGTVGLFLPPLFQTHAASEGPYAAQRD
Description: as §1, §2, §3

[2] = target: hα6(S233C) + hβ4 + hβ3 nAChR (Homo sapiens, UniProt P30926+Q15825, S233C); assay: Oocyte two-electrode voltage clamp; assay type: cell-based
Sequence of hα6(S233C) + hβ4 + hβ3 nAChR (Q15825 26-494 S233C): as the sequence (Q15825 26-494 S233C) above
Sequence of hα6(S233C) + hβ4 + hβ3 nAChR (P30926 22-498): as the sequence (P30926 22-498) above
Sequence of hα6(S233C) + hβ4 + hβ3 nAChR (Q05901 25-458 partner limits assumed): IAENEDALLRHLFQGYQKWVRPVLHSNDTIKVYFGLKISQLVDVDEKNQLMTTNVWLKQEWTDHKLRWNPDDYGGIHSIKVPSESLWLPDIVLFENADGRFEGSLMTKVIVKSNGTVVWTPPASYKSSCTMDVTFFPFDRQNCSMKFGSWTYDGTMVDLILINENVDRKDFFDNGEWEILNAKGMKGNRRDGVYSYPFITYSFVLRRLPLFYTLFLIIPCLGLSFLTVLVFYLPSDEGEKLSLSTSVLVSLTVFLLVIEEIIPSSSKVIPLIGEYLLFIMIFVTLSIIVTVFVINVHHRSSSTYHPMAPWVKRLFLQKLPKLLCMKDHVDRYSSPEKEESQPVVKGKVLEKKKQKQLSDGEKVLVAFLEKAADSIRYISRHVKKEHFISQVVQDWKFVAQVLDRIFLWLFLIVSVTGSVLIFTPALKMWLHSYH
Description: as §1, §2, §3

[3] = target: hα6(D199Y) + hβ4 + hβ3 nAChR (Homo sapiens, UniProt P30926+Q15825, D199Y); assay: Oocyte two-electrode voltage clamp; assay type: cell-based
Description: as §1, §2, §3

[4] = target: hα6(N46K) + codon optimized hβ2 + hβ3^V9’S nAChR (Homo sapiens, UniProt P17787+Q15825, N46K); details: 100 μM nicotine; oocytes clamped at −70 mV
Description: as §1, §2, §3

[5] = target: hα6(N203T) + hβ4 + hβ3 nAChR (Homo sapiens, UniProt P30926+Q15825, N203T); details: 100 μM nicotine; oocytes clamped at −70 mV
Description: as §1, §2, §3

hα6(I226T) + hβ4 nAChR = hα6(I226T) + hβ4 nAChR (Homo sapiens, UniProt P30926+Q15825, I226T); details: 100 μM nicotine; oocytes clamped at −70 mV
Sequence of hα6(I226T) + hβ4 nAChR (Q15825 26-494 I226T): as the sequence (Q15825 26-494 S233C) above, with I201T, C208S counted along it
Sequence of hα6(I226T) + hβ4 nAChR (P30926 22-498): as the sequence (P30926 22-498) above
Description: as §1, §2, §3

[6] = target: hα6(A184D) + WT hβ2 + hβ3^V9’S nAChR (Homo sapiens, UniProt P17787+Q15825, A184D); details: 100 μM nicotine; 3 days after cRNA injection
Description: as §1, §2, §3

hα6(S43P) + hβ4 nAChR = hα6(S43P) + hβ4 nAChR (Homo sapiens, UniProt P30926+Q15825, S43P); details: 100 μM nicotine; oocytes clamped at −70 mV
Description: as §1, §2, §3

[7] = system: hα6(S233C) + WT hβ2 + hβ3^V9’S nAChR; details: 100 μM nicotine; higher, p < 0.05
Description: as §1, §2, §3

[8] = target: hα6(N203T) + codon optimized hβ2 + hβ3^V9’S nAChR (Homo sapiens, UniProt P17787+Q15825, N203T); details: 100 μM nicotine; oocytes clamped at −70 mV
Description: as §1, §2, §3

[9] = target: hα6(N46K) + hβ4 + hβ3 nAChR (Homo sapiens, UniProt P30926+Q15825, N46K); details: 100 μM nicotine; oocytes clamped at −70 mV
Description: as §1, §2, §3

hα6(N46K) + hβ4 nAChR = hα6(N46K) + hβ4 nAChR (Homo sapiens, UniProt P30926+Q15825, N46K); details: 100 μM nicotine; oocytes clamped at −70 mV
Description: as §1, §2, §3

[10] = target: hα6(E101K) + WT hβ2 + hβ3^V9’S nAChR (Homo sapiens, UniProt P17787+Q15825, E101K); details: 100 μM nicotine; 3 days after cRNA injection
Description: as §1, §2, §3

[11] = 100 μM nicotine, oocytes clamped at −70 mV

Sequence of hα6(A184D) + hβ4 + hβ3 nAChR (Q15825 26-494 A184D): as the sequence (Q15825 26-494 S233C) above, with A159D, C208S counted along it
Sequence of hα6(A184D) + hβ4 + hβ3 nAChR (P30926 22-498): as the sequence (P30926 22-498) above
Sequence of hα6(A184D) + hβ4 + hβ3 nAChR (Q05901 25-458 partner limits assumed): as the sequence (Q05901 25-458 partner limits assumed) above

SMILES: CN1CCC[C@H]1c1cccnc1 [nicotine, L-nicotine]
- EC50 [1]: 4.9 µM
- Imax conc. (concentration where maximal peak current achieved) [1]: 100 µM
- nH ± SE (Hill coefficient) [1]: 1.1±0.11
- Mean (±SE) peak current response [1, 11]: 554 ± 108 nA
- EC50 (hα6 + hβ4 + hβ3 nAChR): 12 µM
- Imax conc. (concentration where maximal peak current achieved) (hα6 + hβ4 + hβ3 nAChR): 100 µM
- nH ± SE (Hill coefficient) (hα6 + hβ4 + hβ3 nAChR): 1.5±0.45
- increase of peak current response relative to hα6hβ4-nAChRs (hα6 + hβ4 + hβ3 nAChR; 100 μM nicotine): ~ 12 fold
- Mean (±SE) peak current response (hα6 + hβ4 + hβ3 nAChR; [11]): 407 ± 34 nA
- EC50 (hα6(S233C) + hβ4 nAChR): 6.2 µM
- Imax conc. (concentration where maximal peak current achieved) (hα6(S233C) + hβ4 nAChR): 100 µM
- nH ± SE (Hill coefficient) (hα6(S233C) + hβ4 nAChR): 1.4±0.13
- peak current (Imax, mean ± SE) (hα6(S233C) + hβ4 nAChR; [11]): 73 ± 20 nA
- EC50 [2]: 6.9 µM
- Imax conc. (concentration where maximal peak current achieved) [2]: 100 µM
- nH ± SE (Hill coefficient) [2]: 1.4±0.12
- Mean (±SE) peak current response [2, 11]: 536 ± 66 nA
- EC50 [3]: 11 µM
- Imax conc. (concentration where maximal peak current achieved) [3]: 100 µM
- nH ± SE (Hill coefficient) [3]: 1.5±0.42
- Mean (±SE) peak current response [3, 11]: 276 ± 47 nA
- peak current (Imax, mean ± SE) [4]: 118 ± 33 nA
- Mean (±SE) peak current response [5]: 371 ± 68 nA
- peak current (Imax, mean ± SE) (hα6(I226T) + hβ4 nAChR): 81 ± 10 nA
- peak current response [6]: 15-30 nA
- peak current (Imax, mean ± SE) (hα6(S43P) + hβ4 nAChR): 39 ± 5 nA
- peak current response relative to hα6hβ2hβ3^V9’S-nAChRs [7]: 2-5 fold
- peak current (Imax, mean ± SE) [8]: 762 ± 253 nA
- Mean (±SE) peak current response [9]: 307 ± 39 nA
- peak current (Imax, mean ± SE) (hα6(N46K) + hβ4 nAChR): 78 ± 11 nA
- peak current response [10]: 15-30 nA
